{
  "source": "patent US8592421B2",
  "about": "“Cyclic bioisosters of purine system derivatives and a pharmaceutical composition based thereon” (priority 2003, dated 2013)",
  "system": "thrombocytes",
  "experiment": "ADP-induced aggregation of thrombocytes in vitro (Born method, plasma enriched with thrombocytes)",
  "assay_type": "cell-based, rabbit",
  "details": "3-minute incubation, ADP 10^−5 M",
  "description": "The aggregation of thrombocytes was studied by the Born method based on determination of the changes in the optical density of plasma enriched with thrombocytes after its incubation with an aggregation inductor.\nAdenozinediphosphoric acid (ADP) was selected as an aggregation inductor, which in fact is an aggregation generator. Use was made of a sample (registration number 885) of the Sigma Diagnostics Company (USA) in final concentration of 10^−5 M.\nThe experiments were carried out on male rabbits of the “Chinchilla” breed having a mass of 2.7±0.3 kg. 18-24 hours prior to the experiment they were deprived of feed while preserving free access to water.\nTo obtain plasma enriched with thrombocytes, blood was taken from a cut of a marginal vein of the rabbit ear, the sample was stabilized with 3.8% of sodium citrate solution in a ratio of 9:1 and centrifuged at 200 g (1000 rev/min) for 10 minutes. The top supernatant layer enriched with thrombocytes was transferred by an automatic dropper into a silicone test tube and kept at 37° C. The plasma enriched with thrombocytes contained, on the average, […]. If this content exceeded the specified 3×10^8 blood platelets in 1 liter, this sample was diluted to the necessary concentration with plasma deprived of thrombocytes, which was obtained by centrifuging blood at 650 g during 10 minutes.\nThe measurements of the optical density of the samples were made on two-channel aggregometer of the “Chronolog” Company (USA). A flask containing 490 mkl of plasma rich with thrombocytes was placed in a device, into which a magnetic agitator covered with Teflon was lowered. The index of maximum amplitude of aggregation (MA) in percent of a fall of the plasma optical density under effect of the aggregation inductor was recorded. The control index MA of plasma was compared with the MA of plasma incubated for 3 minutes with different concentrations of the compounds: from 10^−3 to 10^−7 in vitro experiments or with plasma obtained 15, 30, 60 and 120 minutes after intravenous administration of different doses of the compounds in vivo experiments.\nThe process of aggregation of thrombocytes was recorded with the help of a computer; on the monitor screen the there were depicted curves reflecting changes of the optical density of the plasma enriched which was taken as a standard 100% compared to the optical density of the non-thrombocyte plasma taken for 0% content of thrombocytes.\nUnder in vitro conditions a flask was filled with blood plasma enriched with thrombocytes, to which an aggregation inductor ADP was added at a concentration of 10^−5 M, incubated for 3 minutes, and then the compounds according to the invention were introduced directly into the flask. Their action by aggregation of thrombocytes was studied after 3-minute incubation in a wide range of concentrations from 10^−3 to 10^−7 M to minimum concentration of 10^−7M not inducing no effect of suppressing the aggregation.",
  "data": [
    {"smiles": "O=c1[nH][nH]c(=O)c2ncccc12.[Li]", "note": "[Compound 6, lithium salt of pyrido[2,3-d]-6H-pyridazine-5,8-dione]", "values": [
      {"measurement": "MA - fall of optical density of plasma, % to the standard", "setting": "10^−3 M, control 60.8 ± 3.4", "value": "50.0 ± 1.9", "unit": "%"},
      {"measurement": "MA - fall of optical density of plasma, % to the standard", "setting": "10^−4 M, control 60.0 ± 2.1", "value": "53.3 ± 2.2", "unit": "%"},
      {"measurement": "MA - fall of optical density of plasma, % to the standard", "setting": "10^−5 M, control 52.5 ± 2.1", "value": "47.4 ± 2.0", "unit": "%"},
      {"measurement": "MA - drop of optical density, %", "setting": "10^−6 M, control 52.8 ± 1.8", "value": "51.2 ± 3.2", "unit": "%"},
      {"measurement": "MA - drop of optical density, %", "setting": "10^−7 M, control 51.5 ± 2.1", "value": "50.7 ± 3.2", "unit": "%"}
    ]},
    {"smiles": "O=c1[nH][nH]c(=O)c2nccnc12.[Li]", "note": "[Compound 25, lithium salt of pyrazine[2,3-d]-6H-pyridazine-5,8-dione]", "values": [
      {"measurement": "MA - fall of optical density of plasma, % to the standard", "setting": "10^−3 M, control 60.8 ± 3.4", "value": "48.2 ± 2.9", "unit": "%"},
      {"measurement": "MA - fall of optical density of plasma, % to the standard", "setting": "10^−4 M, control 60.0 ± 2.1", "value": "48.6 ± 2.0", "unit": "%"},
      {"measurement": "MA - fall of optical density of plasma, % to the standard", "setting": "10^−5 M, control 52.5 ± 2.1", "value": "43.4 ± 3.2", "unit": "%"},
      {"measurement": "MA - drop of optical density, %", "setting": "10^−6 M, control 52.8 ± 1.8", "value": "50.3 ± 2.1", "unit": "%"},
      {"measurement": "MA - drop of optical density, %", "setting": "10^−7 M, control 51.5 ± 2.1", "value": "50.1 ± 3.0", "unit": "%"}
    ]},
    {"smiles": "Nc1ncc2c(=O)[nH][nH]c(=O)c2n1", "note": "[Compound 36, 2-amino-pyrimido[4,5-d]-6H-pyridazine-5,8-dione]", "values": [
      {"measurement": "MA - fall of optical density of plasma, % to the standard", "setting": "10^−3 M, control 60.8 ± 3.4", "value": "45.8 ± 2.3", "unit": "%"},
      {"measurement": "MA - fall of optical density of plasma, % to the standard", "setting": "10^−4 M, control 60.0 ± 2.1", "value": "46.9 ± 2.4", "unit": "%"},
      {"measurement": "MA - fall of optical density of plasma, % to the standard", "setting": "10^−5 M, control 52.5 ± 2.1", "value": "40.1 ± 2.0", "unit": "%"},
      {"measurement": "MA - drop of optical density, %", "setting": "10^−6 M, control 52.8 ± 1.8", "value": "49.3 ± 2.6", "unit": "%"},
      {"measurement": "MA - drop of optical density, %", "setting": "10^−7 M, control 51.5 ± 2.1", "value": "49.7 ± 1.8", "unit": "%"}
    ]}
  ]
}
